Laboratory results published in patent US6649634B2, “Substituted N-( indole-2-carbonyl-) amides and derivatives as glycogen phosphorylase inhibitors” (Pfizer, Inc., priority 1995, dated 2003).

## CON(C)C(=O)C(O)CNC(=O)c1cc2cc(Cl)ccc2[nH]1 (racemic) [Example 30, 5-Chloro-1H-indole-2-carboxylic acid [(2RS)-hydroxy-2-(methoxy-methyl-carbamoyl)-ethyl]-amide]
  melting point: 192 to 192.5 °C
